Consider four substances from US20220380763A1, “NUCLEIC ACID DELIVERY ENHANCER” (NATIONAL UNIVERSITY CORPORATION KOCHI UNIVERSITY, priority 2019, published 2022).

The subject of one series is S2-013 cells. Put plainly: Matrigel invasion assay. In kind it is cell-based, human. Particulars: unmodified siRNA added with folic acid-cationic oligopeptide complex (Fol-Dab8A and Fol-Dab8B); versus control siRNA, P<0.05. The procedure:
Each of the scrambled control siRNA, SNORA18 siRNA, NUP85 siRNA, WASF2 siRNA, and SNORA22 siRNA (all used in Example 5) with the folic acid-cationic oligopeptide complex added was added to the culture solution of S2-013 cells, and Matrigel invasion assay was performed after 48 hours.
4.0×10^4 cells were suspended in a serum-free medium and seeded in the upper chamber of a Matrigel Invasion Chamber (24-well plate, pore size: 8 μm, manufactured by Becton, Dickinson, and Company). A solvent containing 5% fetal bovine serum was added to the lower chamber. After the cells were incubated in the upper chamber for 20 hours, three independent areas were observed under a microscope, and the cells invading the lower chamber were counted. The same experiment was repeated three times, and the cell invasion ability of 52-013 cells into which each siRNA was taken up was compared.
The “*” denotes a significant difference at P<0.05 as compared to the control in the t-test.
Each of the scrambled control siRNA (SEQ ID NOs: 3 and 4), SNORA18 siRNA (SEQ ID NOs: 21 and 22), NUP85 siRNA (SEQ ID NOs: 23 and 24), WASF2 siRNA (SEQ ID NOs: 25 and 26), and SNORA22 siRNA (SEQ ID NOs: 27 and 28) was added with 2 equivalents of Dab8, Fol-Dab8A, or Fol-Dab8B to the culture solution of pancreatic cancer cell line S2-013 in culture. As a control, each of the control siRNA, SNORA18 siRNA, NUP85 siRNA, WASF2 siRNA, and SNORA22 siRNA was added alone to the culture solution of the S2-013 cells.
After 48 hours of culture, the Matrigel invasion assay was performed. In the Matrigel invasion assay, the number of cells that have migrated from the upper chamber to the lower chamber is shown. The “*” denotes a significant difference at P<0.05 as compared to the control in the t-test.

In series [1] the test system is S2-013 pancreatic cancer cells. Nature of the series: Lysosome (LysoTracker) and siRNA staining, confocal microscopy. Particulars: chemically-modified Alexa488-labeled siRNA with Fol-Dab8A or Fol-Dab8B, 2 equivalents, overnight. In kind it is cell-based, human.

With “NUP85 siRNA: double-stranded siRNA against NUP85, SEQ ID NOs: 7 and 8 (Table 2) (chain 1 CAGCGGCAGAUGACUGAACAA; chain 2 UUGUUCAGUCAUCUGCCGCUG; listed as RNA, chemistry not given here)”, in the series with S2-013 cells, the cell invasion entry is recorded as “significantly suppressed”.

In the case of “SNORA18 siRNA: double-stranded siRNA against SNORA18, SEQ ID NOs: 5 and 6 (Table 2) (chain 1 UUUACUUUACUCACAGGACUA; chain 2 UAGUCCUGUGAGUAAAGUAAA; listed as RNA, chemistry not given here)”, the cell invasion result in the series on S2-013 cells is “significantly suppressed”.

For the substance “SNORA22 siRNA: double-stranded siRNA against SNORA22, SEQ ID NOs: 11 and 12 (Table 2) (chain 1 CUUGGCUUUGACCCUGUGCUA; chain 2 UAGCACAGGGUCAAAGCCAAG; chemistry not given here)”, in the series with S2-013 cells, the cell invasion entry is recorded as “significantly suppressed”. Besides, in series [1], the “intracellular localization of siRNA” value was “localized in lysosomes”.

Consider “WASF2 siRNA: double-stranded siRNA against WASF2, SEQ ID NOs: 9 and 10 (Table 2) (chain 1 UAGGAUUAGAUCAUUAGCUCA; chain 2 UGAGCUAAUGAUCUAAUCCUA; listed as RNA, chemistry not given here)”, for which the cell invasion entry with S2-013 cells was “significantly suppressed”.
